Consider 26 compounds from US20080027014A1, “Novel SGLT inhibitors” (Tanabe Seiyaku Co., Ltd., priority 2006, published 2008).

For one data set, the target named is T1, human SGLT2 (Homo sapiens, UniProt P31639).
T1 construct: expressed in transfected cells; host or cells: CHOK1 cells (kept under Geneticin selection)
T1 sequence (P31639 1-672): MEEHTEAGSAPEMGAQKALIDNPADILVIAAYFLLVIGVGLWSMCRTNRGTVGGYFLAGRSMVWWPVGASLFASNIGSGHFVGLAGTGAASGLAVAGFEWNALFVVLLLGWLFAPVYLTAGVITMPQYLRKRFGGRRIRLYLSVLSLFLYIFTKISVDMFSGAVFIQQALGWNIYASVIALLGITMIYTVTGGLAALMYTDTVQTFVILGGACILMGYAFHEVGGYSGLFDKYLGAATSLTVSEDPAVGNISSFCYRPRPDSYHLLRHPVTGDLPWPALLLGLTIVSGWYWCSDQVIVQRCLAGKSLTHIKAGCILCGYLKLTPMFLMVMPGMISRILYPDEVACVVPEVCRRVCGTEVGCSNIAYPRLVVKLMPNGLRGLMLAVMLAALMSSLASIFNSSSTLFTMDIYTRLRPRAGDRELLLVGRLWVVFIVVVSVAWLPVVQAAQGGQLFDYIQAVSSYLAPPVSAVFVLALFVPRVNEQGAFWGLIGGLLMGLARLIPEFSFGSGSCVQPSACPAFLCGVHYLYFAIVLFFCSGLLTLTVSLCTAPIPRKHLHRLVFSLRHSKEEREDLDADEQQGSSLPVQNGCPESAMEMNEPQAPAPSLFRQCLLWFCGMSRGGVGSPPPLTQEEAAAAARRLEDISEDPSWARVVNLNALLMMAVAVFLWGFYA
The data set is described as follows: Assay for SGLT2 inhibition (14C-AMG uptake in CHOK1 cells expressing human SGLT2). In kind it is cell-based. The following applies: CHOK1 cells expressing human SGLT2, 14C-AMG uptake 0.5 mM, 2 hours at 37° C. How it is done: 1. Assay for SGLT2 Inhibition
Compounds described in the above examples were used for the SGLT2 inhibition assay.
CHOK1 cells expressing human SGLT2 were seeded in 24-well plates at a density of 400,000 cells/well in F-12 nutrient mixture (Ham's F-12) containing 10% fetal bovine serum, 400 μg/ml Geneticin, 50 units/ml sodium penicillin G (Gibco-BRL) and 50 μg/ml streptomycin sulfate. After 2 days of culture at 37° C. in a humidified atmosphere containing 5% CO2, cells were washed once with the assay buffer (137 mM NaCl, 5 mM KCl, 1 mM CaCl2, 1 mM MgCl2, 50 mM Hepes, and 20 mM Tris, pH 7.4) and incubated with 250 μl of the buffer containing test compounds for 10 min at 37° C. Test compounds were dissolved in DMSO. The final concentration of DMSO was 0.5%. The transport reaction was initiated by addition of 50 μl [^14C]-methyl-α-D-glucopyranoside (^14C-AMG) solution (final concentration, 0.5 mM). After incubation for 2 hours at 37° C., the uptake was stopped by aspiration of the incubation mixture, the cells were washed three times with ice-cold PBS. Then, cells were solubilized with 0.3 N NaOH and aliquots were taken for determination of radioactivity by a liquid scintillation counter. Nonspecific AMG uptake was defined as that which occurred in the presence of 100 μM of phlorizin, a specific inhibitor of sodium-dependent glucose cotransporter. Specific uptake was normalized for the protein concentrations measured by the method of Bradford. The 50% inhibitory concentration (IC50) values were calculated from dose-response curves by least square method.

Data set [1] has as its system male Sprague-Dawley (SD) rats. The data set is described as follows: Urinary glucose excretion test in rats. The following applies: 30 mg/kg by oral gavage, urine collected for 24 hours, daily amount of glucose excreted per individual. In kind it is in vivo, rat. As to the method: 2. Urinary Glucose Excretion Test in Rats
Compounds described in the above examples were used for the Urinary glucose excretion test in rats.
6-week-old male Sprague-Dawley (SD) rats were housed in individual metabolic cages with free access to food and water from 2 days prior to the experiment. On the morning of the experiment, rats were administered vehicle (0.2% carboxymethyl cellulose solution containing 0.2% Tween80) or test compounds (30 mg/kg) by oral gavage at a volume of 10 ml/kg. Then, urine of the rat was collected for 24 hours, and the urine volume was measured. Subsequently, the glucose concentration in urine was quantified using the enzymatic assay kit and the daily amount of glucose excreted in urine per individual was calculated.

A further data set has as its system diabetic animal models. The following applies: continuous subcutaneous administration; cited from earlier work.

On to `OC[C@H]1S[C@@H](n2cc(Cc3ccc4occc4c3)c3c(Cl)cccc32)[C@H](O)[C@@H](O)[C@@H]1O` [Example 8], for which 41 nM corresponded to half-maximal inhibition at human SGLT2 (IC50).

`CCc1ccc(Cc2cn([C@@H]3S[C@H](CO)[C@@H](O)[C@H](O)[C@H]3O)c3ccccc23)cc1` [Example 1, 3-(4-Ethylphenylmethyl)-1-(5-thio-β-D-glucopyranosyl)indole]: the IC50 against human SGLT2 turned out to be 180 nM. As for `COc1ccc(Cc2cn([C@@H]3S[C@H](CO)[C@@H](O)[C@H](O)[C@H]3O)c3cccc(Cl)c23)cc1` [Example 15], inhibition on human SGLT2 was half-maximal at 15 nM (IC50). Compound `OC[C@H]1S[C@@H](n2cc(Cc3ccc(-c4cccs4)cc3)c3c(F)cccc32)[C@H](O)[C@@H](O)[C@@H]1O` [Example 31] yielded an IC50 against human SGLT2 of 150 nM. On human SGLT2, `OC[C@H]1S[C@@H](n2cc(Cc3ccc(OC(F)F)cc3)c3c(Cl)cccc32)[C@H](O)[C@@H](O)[C@@H]1O` [Example 30] showed an IC50 of 54 nM. On the same count and under the same terms, for `CSc1ccc(Cc2cn([C@@H]3S[C@H](CO)[C@@H](O)[C@H](O)[C@H]3O)c3cccc(Cl)c23)cc1` [Example 10] the value was 22 nM.

Compound `CCc1ccc(Cc2cn([C@@H]3O[C@H](CO)[C@@H](F)[C@H](O)[C@H]3O)c3ncccc23)cc1` [Example 36] had a concentration for half-maximal inhibition (IC50) against human SGLT2 of 120 nM. Turning to `OC[C@H]1S[C@@H](n2cc(Cc3ccc(Br)s3)c3c(Cl)cccc32)[C@H](O)[C@@H](O)[C@@H]1O` [Example 23], the IC50 at human SGLT2 was 170 nM.

Take `N#Cc1cccc(-c2ccc(Cc3cn([C@@H]4S[C@H](CO)[C@@H](O)[C@H](O)[C@H]4O)c4cccc(Cl)c34)s2)c1` [Example 22]: it took 210 nM to reach half-maximal inhibition at human SGLT2 (IC50). Take `OC[C@H]1O[C@@H](c2ccc(Cl)c(Cc3cc4ccccc4s3)c2)[C@H](O)[C@@H](O)[C@H]1F` [Example 5, 3-(Benzo[b]thiophen-2-ylmethyl)-4-chloro-1-(4-fluoro-4-deoxy-β-D-galactopyranosyl)benzene]: the melting point is 153 to 154 °C. The Urinary glucose result in data set [1] is reported as “A (A≧2400 mg)”. The midpoint of inhibition at human SGLT2, the IC50, lay at 5.3 nM. With `O=C(CCc1ccc(O)cc1)c1c(O)cc(O)cc1O[C@@H]1O[C@H](CO)[C@@H](O)[C@H](O)[C@H]1O` [phlorizin], the blood glucose level result with diabetic animal models is “normalized”. `OC[C@H]1S[C@@H](n2cc(Cc3ccc(I)cc3)c3c(F)cccc32)[C@H](O)[C@@H](O)[C@@H]1O` [Example 17] registered an IC50 against human SGLT2 of 63 nM. At human SGLT2, `OC[C@H]1S[C@@H](n2cc(Cc3ccc(C(F)F)cc3)c3c(Cl)cccc32)[C@H](O)[C@@H](O)[C@@H]1O` [Example 34] registered an IC50 of 35 nM. In the case of `OC[C@H]1O[C@@H](c2ccc(Cl)c(Cc3cc4ccccc4s3)c2)[C@H](O)[C@@H](O)[C@H]1O` [Example 35], it took 17 nM to reach half-maximal inhibition against human SGLT2 (IC50). Turning to `OC[C@H]1S[C@@H](n2cc(Cc3ccc(-c4ccc(F)nc4)s3)c3c(Cl)cccc32)[C@H](O)[C@@H](O)[C@@H]1O` [Example 26], the IC50 at human SGLT2 was determined as 190 nM. `CCc1ccc(Cc2cn([C@@H]3S[C@H](CO)[C@@H](O)[C@H](O)[C@H]3O)c3cccc(Cl)c23)cc1` [Example 2, 4-Chloro-3-(4-ethylphenylmethyl)-1-(5-thio-β-D-glucopyranosyl)indole]: in data set [1], the Urinary glucose entry is “B (2400 mg>B≧2000 mg)”. For the same compound, half-maximal inhibition at human SGLT2 (IC50) required 21 nM.

With `CCc1ccc(Cc2cn([C@@H]3S[C@H](CO)[C@@H](O)[C@H](O)[C@H]3O)c3cccc(Cl)c23)s1` [Example 25], at human SGLT2, it took 67 nM to reach half-maximal inhibition (IC50).

On human SGLT2, `O[C@@H]1[C@@H](O)[C@H](c2ccc(Cl)c(Cc3ccc(-c4ccccc4)s3)c2)O[C@H](CF)[C@H]1O` [Example 6, 4-Chloro-3-(5-phenyl-2-thienylmethyl)-1-(6-fluoro-6-deoxy-β-D-glucopyranosyl)benzene] registered an IC50 of 31 nM.

For the compound `OC[C@H]1S[C@@H](n2cc(Cc3ccc(Cl)cc3)c3c(Cl)cccc32)[C@H](O)[C@@H](O)[C@@H]1O` [Example 13], at human SGLT2, the IC50 turned out to be 110 nM.

In the case of `Cc1cccc2c1c(Cc1ccc(C3CC3)cc1)cn2[C@@H]1S[C@H](CO)[C@@H](O)[C@H](O)[C@H]1O` [Example 28], the IC50 against human SGLT2 was found to be 19 nM.

As to `OC[C@H]1S[C@@H](n2cc(Cc3ccc(-c4ccccn4)s3)c3c(Cl)cccc32)[C@H](O)[C@@H](O)[C@@H]1O` [Example 33], the IC50 against human SGLT2 is 10 nM. Compound `OC[C@H]1S[C@@H](n2cc(Cc3ccc4occc4c3)c3c(F)cccc32)[C@H](O)[C@@H](O)[C@@H]1O` [Example 18] yielded an IC50 at human SGLT2 of 190 nM.

For the compound `Cc1cccc2c1c(Cc1ccc(Cl)cc1)cn2[C@@H]1S[C@H](CO)[C@@H](O)[C@H](O)[C@H]1O` [Example 20], at human SGLT2, the IC50 was determined as 180 nM. Consider `OC[C@H]1S[C@@H](n2cc(Cc3ccc4ccccc4c3)c3c(Cl)cccc32)[C@H](O)[C@@H](O)[C@@H]1O` [Example 16], for which, on human SGLT2, half-maximal inhibition (IC50) was put at 130 nM. Take `CCOc1ccc(Cc2cn([C@@H]3S[C@H](CO)[C@@H](O)[C@H](O)[C@H]3O)c3cccc(C)c23)cc1` [Example 19]: the IC50 against human SGLT2 was 46 nM. As to `OC[C@H]1S[C@@H](n2cc(Cc3ccc(Br)cc3)c3c(Cl)cccc32)[C@H](O)[C@@H](O)[C@@H]1O` [Example 14], the IC50 at human SGLT2 is 97 nM.

As usually defined, the IC50 is the concentration that gives 50% inhibition. Lower therefore signals greater potency. In general, melting point refers to the temperature of the solid-liquid transition.
